Values after ≈ are worked out from the molar mass of the structure shown. Where two headings read alike, the source gives them in different places.
Experiments:
[1] = tested on: multi-drug resistant P. aeruginosa ATCC 27853
[2] = tested on: methicillin-resistant S. aureus (ATCC 33592); conditions: for MIC, S. aureus (MRSA): Table 5
[3] = tested on: human red blood cells (hRBC's); assay: Hemolysis assay; type: cell-based
Procedure: Freshly drawn human red blood cells (hRBC's) with additive K2 EDTA (spray-dried) were washed with PBS buffer several times and centrifuged at 1000 g for 10 min until a clear supernatant was observed. The hRBC's were resuspended in 1×PBS to get a 5% v/v suspension. Two-fold serial dilutions of γ-AApeptides dissolved in 1×PBS from 250 μg/ml through 1.6 μg/ml were added to a sterile 96-well plate to make up a total volume of 50 μL in each well. Then 50 μL of 5% v/v hRBC solution was added to make up a total volume of 100 μL in each well. The 0% hemolysis point and 100% hemolysis point were determined in 1×PBS and 0.2% Triton-X-100, respectively (Patch et al., 2003). The plate was then incubated at 37° C. for 1 h and centrifuged at 3500 rpm for 10 min. The supernatant (30 μL) was diluted with 100 μL of 1×PBS and absorption was detected by measuring the optical density at 360 nm by Biotek Synergy HT microtiter plate reader. % hemolysis was determined by the following equation: % hemolysis=(Abssample−AbsPBS)/(AbsTriton−AbsPBS)×100 H50 is the concentration of γ-AApeptide amphiphiles at which 50% hemolysis was observed. The highest concentration tested in the hemolytic assay was 500 μg/ml. 7. Fluorescence Microscopy
The sequences shown in FIG. 12 were also evaluated via hemolytic assays. Freshly drawn human red blood cells (hRBC's) with additive K2 EDTA (spray-dried) were washed with PBS buffer several times and centrifuged at 1000 g for 10 min until a clear supernatant was observed. The hRBC's were resuspended in 1×PBS to get a 5% v/v suspension. Two-fold serial dilutions of lipidated γ-AApeptides dissolved in 1×PBS from 1 mg/ml through 6.3 μg/ml were added to sterile 96-well plates to make up a total volume of 50 μL in each well. Then 50 μL of 5% v/v hRBC solution was added to make up a total volume of 100 μL in each well. The 0% hemolysis point and 100% hemolysis point were determined in 1×PBS and 0.2% Triton-X-100, respectively (Patch et al., 2003). The plate was then incubated at 37° C. for 1 h and centrifuged at 3500 rpm for 10 min. The supernatant (30 μL) was diluted with 100 μL of 1×PBS and absorption was detected by measuring the optical density at 360 nm with a Biotek Synergy HT microtiter plate reader. % hemolysis was determined by the following equation: % hemolysis=(Abs sample−Abs PBS)/(Abs Triton−Abs PBS)×100

[4] = tested on: vancomycin-resistant E. faecalis (ATCC 700802); conditions: for MIC, E. faecalis (VREF): Table 5
[5] = tested on: multi-drug resistant S. epidermidis (RP62A); conditions: for MIC, S. epidermidis (MRSE): Table 5
[6] = tested on: K. pneumoniae (ATCC 13383)
C. albicans (ATCC 10231) = conditions: ATCC 10231

Row | SMILES | MIC, S. aureus (MRSA) [2] | MIC, E. faecalis (VREF) [4] | MIC, S. epidermidis (MRSE) [5] | MIC, B. subtilis (B. subtilis (BR151)) | MIC, K. pneumoniae [6] | MIC, Fungus C. albicans (C. albicans (ATCC 10231)) | MIC, P. aeruginosa ([1]; ATCC 27853) | Hemolysis H10 [3] | Hemolysis H50 [3] | further results
1 | NCCCC[C@H]1CN(C(=O)CCc2ccccc2)CC(=O)N[C@@H](CCCCN)CN(C(=O)CCc2ccccc2)CC(=O)N[C@@H](CCCCN)CN(C(=O)CCc2ccccc2)CC(=O)N[C@@H](CCCCN)CN(C(=O)CCc2ccccc2)CC(=O)N[C@@H](Cc2ccccc2)CN(CC(N)=O)C(=O)CCC(=O)N1 [HW-B-3] | > 50 µg/mL | > 50 µg/mL | > 50 µg/mL | 25000 to 50000 µg/mL | > 50 µg/mL | > 50 µg/mL | – | – | – | MIC, P. aeruginosa ([1]; Table 5): > 50 µg/mL; Hemolysis H10 ([3]; Table 5, first value of H10/H50): > 500 µg/mL; Hemolysis H50 ([3]; Table 5, second value of H10/H50): > 500 µg/mL
2 | CCCCCCCCCCCCCCCC(=O)N[C@@H](C)CN(CC(=O)N[C@@H](C)CN(CC(=O)N[C@@H](CC(C)C)CN(CC(=O)N[C@@H](CC(C)C)CN(CC(=O)N[C@@H](CC(C)C)CN(CC(N)=O)C(=O)CCCN)C(=O)CCCN)C(=O)CCCN)C(C)=O)C(C)=O [Sequence 6] | – | – | – | – | – | – | – | – | – | MIC, Gram negative P. aeruginosa ([1]; ATCC 27853): 5 µg/mL (≈ 3.87 µM); MIC, Gram negative E. coli (E. coli (JM109)): 2.5 µg/mL (≈ 1.94 µM); MIC, Gram positive S. aureus ([2]; Table 7): 4 µg/mL (≈ 3.1 µM); Hemolysis HC10 ([3]; red cells of human): 60 µg/mL; Hemolysis HC50 ([3]; red cells of human): > 500 µg/mL; MIC, Gram positive E. faecalis ([4]; Table 7): 5 µg/mL (≈ 3.87 µM); MIC, Gram positive S. epidermidis ([5]; Table 7): 4 µg/mL (≈ 3.1 µM); MIC, Gram positive B. subtilis (B. subtilis (BR151)): 2.5 µg/mL (≈ 1.94 µM); MIC, Gram negative K. pneumoniae [6]: 5 µg/mL (≈ 3.87 µM)
3 | CC(C)CCC(=O)N1CC(=O)N[C@@H](CCCCN)CN(C(=O)CCc2ccccc2)CC(=O)N[C@@H](Cc2ccccc2)CN(CC(N)=O)C(=O)CCC(=O)N[C@@H](CCCCN)CN(C(=O)CCc2ccccc2)CC(=O)N[C@@H](Cc2ccccc2)CN(C(=O)CCC(C)C)CC(=O)N[C@@H](CCCCN)CN(C(=O)CCc2ccccc2)CC(=O)N[C@@H](CCCCN)CN(C(=O)CCc2ccccc2)CC(=O)N[C@@H](Cc2ccccc2)C1 [HW-B-12] | 6 µg/mL (≈ 2.88 µM) | 8 µg/mL (≈ 3.85 µM) | 5 µg/mL (≈ 2.4 µM) | 5 µg/mL (≈ 2.4 µM) | 5 µg/mL (≈ 2.4 µM) | 5 µg/mL (≈ 2.4 µM) | > 50 µg/mL | 150 µg/mL | 450 µg/mL | –
4 | NCCCC[C@H]1CN(C(=O)CCc2ccccc2)CC(=O)N[C@@H](CCCCN)CN(C(=O)CCc2ccccc2)CC(=O)N[C@@H](CCCCN)CN(C(=O)CCc2ccccc2)CC(=O)N[C@@H](CCCCN)CN(C(=O)CCc2ccccc2)CC(=O)N[C@@H](CCCCN)CN(C(=O)CCc2ccccc2)CC(=O)N[C@@H](CCCCN)CN(C(=O)CCc2ccccc2)CC(=O)N[C@@H](Cc2ccccc2)CN(CC(N)=O)C(=O)CCC(=O)N1 [HW-B-5] | 25-50 | 20 µg/mL (≈ 9.48 µM) | 8 µg/mL (≈ 3.79 µM) | 5 µg/mL (≈ 2.37 µM) | > 50 µg/mL | > 50 µg/mL | 18 µg/mL (≈ 8.53 µM) | > 500 µg/mL | > 500 µg/mL | –
5 | NCCCC[C@H]1CN(C(=O)CCc2ccccc2)CC(=O)N[C@@H](CCCCN)CN(C(=O)CCc2ccccc2)CC(=O)N[C@@H](CCCCN)CN(C(=O)CCc2ccccc2)CC(=O)N[C@@H](CCCCN)CN(C(=O)CCc2ccccc2)CC(=O)N[C@@H](CCCCN)CN(C(=O)CCc2ccccc2)CC(=O)N[C@@H](Cc2ccccc2)CN(CC(N)=O)C(=O)CCC(=O)N1 [HW-B-4] | > 50 µg/mL | 20 µg/mL (≈ 11.1 µM) | 10 µg/mL (≈ 5.54 µM) | 10 µg/mL (≈ 5.54 µM) | > 50 µg/mL | > 50 µg/mL | 20 µg/mL (≈ 11.1 µM) | > 500 µg/mL | > 500 µg/mL | –
6 | NCCCC[C@H](N)CN(CC(=O)N[C@@H](CCCCN)CN(CC(=O)N[C@@H](CCCCN)CN(CC(N)=O)C(=O)CCc1ccccc1)C(=O)CCc1ccccc1)C(=O)CCc1ccccc1 [γ1] | – | – | – | >100 µg/mL | – | – | – | – | – | MIC, E. coli (E. coli (JM109)): >100 µg/mL; MIC, S. aureus (methicillin-resistant) ([2]; Table 1): >100 µg/mL; MIC, E. faecalis (vancomycin-resistant) ([4]; Table 1): >100 µg/mL; MIC, S. epidermidis (multi-drug resistant) ([5]; Table 1): >100 µg/mL; MIC, K. pneumoniae (causing pneumonia) [6]: >100 µg/mL
